According to patent US5294611A, “Angiotensin II receptor blocking 2,3,6 substituted quinazolinones” (American Cyanamid Company, priority 1993, dated 1994):
Like-named read-outs stand apart in the source and are kept apart here.

Tested on: Angiotensin II (AII) vasopressor response
Experiment: AII Challenge: antagonism of angiotensin II vasopressor response in conscious spontaneously hypertensive rats
Format: in vivo, rat (male okamoto-Aoki SHR)
Conditions: for inhibition in vivo at 1 mg/kg / inhibition in vivo at 3 mg/kg / inhibition in vivo at 5 mg/kg: Rattus norvegicus; for inhibition in vivo at 1 mg/kg / inhibition in vivo at 3 mg/kg: iv; for inhibition in vivo at 3 mg/kg / inhibition in vivo at 5 mg/kg: read-out: Inhibition; for inhibition in vivo at 5 mg/kg: po; for Change: single SHR
In short: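 Read-out is the systolic pressure increase (mmHg) to i.v. angiotensin II, 0.05 and 0.1 ug/kg, compared pre- and post-dose in restrained, conscious spontaneously hypertensive male rats. Compounds administered orally, i.p. or i.v.; arterial cannula inserted under local anaesthesia.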

CCCCc1nc2ccc([C@H]3[C@@H]4C(=O)CC[C@@H]4ON3C)cc2c(=O)n1Cc1ccc(-c2ccccc2-c2nnn[nH]2)cc1 (relative stereo) [Example 48]
inhibition in vivo at 1 mg/kg (0.5 h, SHR n=2, 1 mg/kg I.V., AII 0.05 mcg/kg IV, 30 min post dose): 66% | inhibition in vivo at 1 mg/kg (0.5 h, SHR n=2, 1 mg/kg I.V., AII 0.1 mcg/kg IV, 30 min post dose): 52% | inhibition in vivo at 3 mg/kg (0.5 h, SHR n=2, 3 mg/kg I.V., AII 0.05 mcg/kg IV, 30 min post dose): 93% | inhibition in vivo at 3 mg/kg (0.5 h, SHR n=2, 3 mg/kg I.V., AII 0.1 mcg/kg IV, 30 min post dose): 94% | inhibition in vivo at 1 mg/kg (1 h, SHR n=2, 1 mg/kg I.V., AII 0.05 mcg/kg IV, 60 min post dose): 55% | inhibition in vivo at 1 mg/kg (1 h, SHR n=2, 1 mg/kg I.V., AII 0.1 mcg/kg IV, 60 min post dose): 71% | inhibition in vivo at 3 mg/kg (1 h, SHR n=2, 3 mg/kg I.V., AII 0.05 mcg/kg IV, 60 min post dose): 100% | inhibition in vivo at 3 mg/kg (1 h, SHR n=2, 3 mg/kg I.V., AII 0.1 mcg/kg IV, 60 min post dose): 86% | inhibition in vivo at 1 mg/kg (2 h, SHR n=2, 1 mg/kg I.V., AII 0.05 mcg/kg IV, 120 min post dose): 49% | inhibition in vivo at 1 mg/kg (2 h, SHR n=2, 1 mg/kg I.V., AII 0.1 mcg/kg IV, 120 min post dose): 31% | inhibition in vivo at 3 mg/kg (2 h, SHR n=2, 3 mg/kg I.V., AII 0.05 mcg/kg IV, 120 min post dose): 89% | inhibition in vivo at 3 mg/kg (2 h): 82% | inhibition in vivo at 1 mg/kg (3 h, SHR n=2, 1 mg/kg I.V., AII 0.05 mcg/kg IV, 180 min post dose): 38% | inhibition in vivo at 1 mg/kg (3 h, SHR n=2, 1 mg/kg I.V., AII 0.1 mcg/kg IV, 180 min post dose): 38% | inhibition in vivo at 3 mg/kg (3 h, SHR n=2, 3 mg/kg I.V., AII 0.05 mcg/kg IV, 180 min post dose): 60% | inhibition in vivo at 3 mg/kg (3 h, SHR n=2, 3 mg/kg I.V., AII 0.1 mcg/kg IV, 180 min post dose): 47% | inhibition in vivo at 1 mg/kg (4 h, SHR n=2, 1 mg/kg I.V., AII 0.05 mcg/kg IV, 240 min post dose): 26% | inhibition in vivo at 1 mg/kg (4 h, SHR n=2, 1 mg/kg I.V., AII 0.1 mcg/kg IV, 240 min post dose): 32% | inhibition in vivo at 3 mg/kg (4 h, SHR n=2, 3 mg/kg I.V., AII 0.05 mcg/kg IV, 240 min post dose): 60% | inhibition in vivo at 3 mg/kg (4 h, SHR n=2, 3 mg/kg I.V., AII 0.1 mcg/kg IV, 240 min post dose): 47% | inhibition in vivo at 1 mg/kg (5 h, SHR n=2, 1 mg/kg I.V., AII 0.05 mcg/kg IV, 300 min post dose): 18% | inhibition in vivo at 1 mg/kg (5 h, SHR n=2, 1 mg/kg I.V., AII 0.1 mcg/kg IV, 300 min post dose): 30% | inhibition in vivo at 3 mg/kg (5 h, SHR n=2, 3 mg/kg I.V., AII 0.05 mcg/kg IV, 300 min post dose): 47% | inhibition in vivo at 3 mg/kg (5 h, SHR n=2, 3 mg/kg I.V., AII 0.1 mcg/kg IV, 300 min post dose): 35% | inhibition in vivo at 1 mg/kg ([…], SHR n=2, 1 mg/kg I.V., AII 0.05 mcg/kg IV, 90 min post dose): 40% | inhibition in vivo at 1 mg/kg ([…], SHR n=2, 1 mg/kg I.V., AII 0.1 mcg/kg IV, 90 min post dose): 52% | inhibition in vivo at 3 mg/kg ([…], SHR n=2, 3 mg/kg I.V., AII 0.05 mcg/kg IV, 90 min post dose): 87% | inhibition in vivo at 3 mg/kg ([…], SHR n=2, 3 mg/kg I.V., AII 0.1 mcg/kg IV, 90 min post dose): 76% | inhibition in vivo at 5 mg/kg (0.5 h, SHR n=2, 5 mg/kg P.O., AII 0.05 mcg/kg IV, 30 min post dose): 76% | inhibition in vivo at 5 mg/kg (0.5 h, SHR n=2, 5 mg/kg P.O., AII 0.1 mcg/kg IV, 30 min post dose): 66% | inhibition in vivo at 5 mg/kg (1 h, SHR n=2, 5 mg/kg P.O., AII 0.05 mcg/kg IV, 60 min post dose): 76% | inhibition in vivo at 5 mg/kg (1 h, SHR n=2, 5 mg/kg P.O., AII 0.1 mcg/kg IV, 60 min post dose): 74% | inhibition in vivo at 5 mg/kg (2 h, SHR n=2, 5 mg/kg P.O., AII 0.05 mcg/kg IV, 120 min post dose): 90% | inhibition in vivo at 5 mg/kg (2 h, SHR n=2, 5 mg/kg P.O., AII 0.1 mcg/kg IV, 120 min post dose): 89% | inhibition in vivo at 5 mg/kg (3 h, SHR n=2, 5 mg/kg P.O., AII 0.1 mcg/kg IV, 180 min post dose): 74% | inhibition in vivo at 5 mg/kg (3 h): 82% | inhibition in vivo at 5 mg/kg (4 h, SHR n=2, 5 mg/kg P.O., AII 0.05 mcg/kg IV, 240 min post dose): 94% | inhibition in vivo at 5 mg/kg (4 h, SHR n=2, 5 mg/kg P.O., AII 0.1 mcg/kg IV, 240 min post dose): 79% | inhibition in vivo at 5 mg/kg (5 h, SHR n=2, 5 mg/kg P.O., AII 0.05 mcg/kg IV, 300 min post dose): 93% | inhibition in vivo at 5 mg/kg (5 h, SHR n=2, 5 mg/kg P.O., AII 0.1 mcg/kg IV, 300 min post dose): 79% | inhibition in vivo at 5 mg/kg ([…], SHR n=2, 5 mg/kg P.O., AII 0.05 mcg/kg IV, 90 min post dose): 79% | inhibition in vivo at 5 mg/kg ([…], SHR n=2, 5 mg/kg P.O., AII 0.1 mcg/kg IV, 90 min post dose): 85% | Average Change (SHR n=2, 1 mg/kg I.V., AII 0.05 mcg/kg IV, 30 min post dose): 15 mmHg | Average Change (SHR n=2, 1 mg/kg I.V., AII 0.05 mcg/kg IV, 60 min post dose): 20 mmHg | Average Change (SHR n=2, 1 mg/kg I.V., AII 0.05 mcg/kg IV, 90 min post dose): 26.5 mmHg | Average Change (SHR n=2, 1 mg/kg I.V., AII 0.05 mcg/kg IV, 120 min post dose): 22.5 mmHg | Average Change (SHR n=2, 1 mg/kg I.V., AII 0.05 mcg/kg IV, 180 min post dose): 27.5 mmHg | Average Change (SHR n=2, 1 mg/kg I.V., AII 0.05 mcg/kg IV, 240 min post dose): 32.5 mmHg | Average Change (SHR n=2, 1 mg/kg I.V., AII 0.05 mcg/kg IV, 300 min post dose): 36 mmHg | Average Change (SHR n=2, 1 mg/kg I.V., AII 0.1 mcg/kg IV, 30 min post dose): 25 mmHg | Average Change (SHR n=2, 1 mg/kg I.V., AII 0.1 mcg/kg IV, 60 min post dose): 15 mmHg | Average Change (SHR n=2, 1 mg/kg I.V., AII 0.1 mcg/kg IV, 90 min post dose): 25 mmHg | Average Change (SHR n=2, 1 mg/kg I.V., AII 0.1 mcg/kg IV, 120 min post dose): 36 mmHg | Average Change (SHR n=2, 1 mg/kg I.V., AII 0.1 mcg/kg IV, 180 min post dose): 32.5 mmHg | Average Change (SHR n=2, 1 mg/kg I.V., AII 0.1 mcg/kg IV, 240 min post dose): 35.5 mmHg | Average Change (SHR n=2, 1 mg/kg I.V., AII 0.1 mcg/kg IV, 300 min post dose): 36.5 mmHg | Average Change (SHR n=2, 3 mg/kg I.V., AII 0.05 mcg/kg IV, 30 min post dose): 2.5 mmHg | Average Change (SHR n=2, 3 mg/kg I.V., AII 0.05 mcg/kg IV, 60 min post dose): 0 mmHg | Average Change (SHR n=2, 3 mg/kg I.V., AII 0.05 mcg/kg IV, 90 min post dose): 5 mmHg | Average Change (SHR n=2, 3 mg/kg I.V., AII 0.05 mcg/kg IV, 120 min post dose): 4 mmHg | Average Change (SHR n=2, 3 mg/kg I.V., AII 0.05 mcg/kg IV, 180 min post dose): 15 mmHg | Average Change (SHR n=2, 3 mg/kg I.V., AII 0.05 mcg/kg IV, 240 min post dose): 15 mmHg | Average Change (SHR n=2, 3 mg/kg I.V., AII 0.05 mcg/kg IV, 300 min post dose): 20 mmHg | Average Change (SHR n=2, 3 mg/kg I.V., AII 0.1 mcg/kg IV, 30 min post dose): 2.5 mmHg | Average Change (SHR n=2, 3 mg/kg I.V., AII 0.1 mcg/kg IV, 60 min post dose): 6 mmHg | Average Change (SHR n=2, 3 mg/kg I.V., AII 0.1 mcg/kg IV, 90 min post dose): 10 mmHg | Average Change (SHR n=2, 3 mg/kg I.V., AII 0.1 mcg/kg IV, 120 min post dose): 7.5 mmHg | Average Change (SHR n=2, 3 mg/kg I.V., AII 0.1 mcg/kg IV, 180 min post dose): 22.5 mmHg | Average Change (SHR n=2, 3 mg/kg I.V., AII 0.1 mcg/kg IV, 240 min post dose): 22.5 mmHg | Average Change (SHR n=2, 3 mg/kg I.V., AII 0.1 mcg/kg IV, 300 min post dose): 27.5 mmHg | Average Change (SHR n=2, 5 mg/kg P.O., AII 0.05 mcg/kg IV, 30 min post dose): 10 mmHg | Average Change (SHR n=2, 5 mg/kg P.O., AII 0.05 mcg/kg IV, 60 min post dose): 10 mmHg | Average Change (SHR n=2, 5 mg/kg P.O., AII 0.05 mcg/kg IV, 90 min post dose): 8.5 mmHg | Average Change (SHR n=2, 5 mg/kg P.O., AII 0.05 mcg/kg IV, 120 min post dose): 4 mmHg | Average Change (SHR n=2, 5 mg/kg P.O., AII 0.05 mcg/kg IV, 180 min post dose): 7.5 mmHg | Average Change (SHR n=2, 5 mg/kg P.O., AII 0.05 mcg/kg IV, 240 min post dose): 2.5 mmHg | Average Change (SHR n=2, 5 mg/kg P.O., AII 0.05 mcg/kg IV, 300 min post dose): 3 mmHg | Average Change (SHR n=2, 5 mg/kg P.O., AII 0.1 mcg/kg IV, 30 min post dose): 16 mmHg | Average Change (SHR n=2, 5 mg/kg P.O., AII 0.1 mcg/kg IV, 60 min post dose): 12.5 mmHg | Average Change (SHR n=2, 5 mg/kg P.O., AII 0.1 mcg/kg IV, 90 min post dose): 7 mmHg | Average Change (SHR n=2, 5 mg/kg P.O., AII 0.1 mcg/kg IV, 120 min post dose): 5 mmHg | Average Change (SHR n=2, 5 mg/kg P.O., AII 0.1 mcg/kg IV, 180 min post dose): 12.5 mmHg | Average Change (SHR n=2, 5 mg/kg P.O., AII 0.1 mcg/kg IV, 240 min post dose): 10 mmHg | Average Change (SHR n=2, 5 mg/kg P.O., AII 0.1 mcg/kg IV, 300 min post dose): 10 mmHg | Change (1 mg/kg I.V., AII 0.05 mcg/kg IV, 30 min post dose): 15 mmHg | Change (1 mg/kg I.V., AII 0.05 mcg/kg IV, 60 min post dose): 20 mmHg | Change (1 mg/kg I.V., AII 0.1 mcg/kg IV, 30 min post dose): 25 mmHg | Change (1 mg/kg I.V., AII 0.1 mcg/kg IV, 60 min post dose): 15 mmHg | Change (3 mg/kg I.V., AII 0.05 mcg/kg IV, 60 min post dose): 0 mmHg | Change (3 mg/kg I.V., AII 0.05 mcg/kg IV, 90 min post dose): 5 mmHg | Change (3 mg/kg I.V., AII 0.05 mcg/kg IV, 180 min post dose): 15 mmHg | Change (3 mg/kg I.V., AII 0.05 mcg/kg IV, 240 min post dose): 15 mmHg | Change (5 mg/kg P.O., AII 0.1 mcg/kg IV, 240 min post dose): 10 mmHg | Change (5 mg/kg P.O., AII 0.1 mcg/kg IV, 300 min post dose): 10 mmHg
